Experimental findings from ChEMBL document CHEMBL3596146, “Design, synthesis, and biological evaluation of a series of alkoxy-3-indolylacetic acids as peroxisome proliferator-activated receptor γ/δ agonists” (Bioorg Med Chem, 2015) are described below.

The source made the active and inactive calls. The rule behind the calls is not given here.

Data set [1] concerns the target T1, Peroxisome proliferator-activated receptor alpha (Homo sapiens, UniProt Q07869).
T1 sequence (Q07869 whole entry): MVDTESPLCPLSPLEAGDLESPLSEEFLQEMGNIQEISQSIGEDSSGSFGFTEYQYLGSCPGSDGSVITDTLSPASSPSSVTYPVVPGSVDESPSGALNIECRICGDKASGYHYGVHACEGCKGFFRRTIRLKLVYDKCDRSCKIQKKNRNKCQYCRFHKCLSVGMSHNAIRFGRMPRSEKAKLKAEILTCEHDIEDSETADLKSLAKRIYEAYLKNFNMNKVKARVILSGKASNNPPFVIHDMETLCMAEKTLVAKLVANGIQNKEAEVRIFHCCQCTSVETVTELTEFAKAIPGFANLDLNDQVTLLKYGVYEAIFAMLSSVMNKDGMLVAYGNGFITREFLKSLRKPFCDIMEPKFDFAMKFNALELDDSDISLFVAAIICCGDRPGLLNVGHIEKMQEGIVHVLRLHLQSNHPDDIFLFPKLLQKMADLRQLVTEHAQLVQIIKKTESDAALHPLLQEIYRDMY
As to the kind of experiment: Agonist activity at PPAR-alpha (unknown origin) expressed in CV-1 cells co-transfected with tk-PPRE-luciferase vector after 24 hrs by transactivation assay. Type of data set: cell-based.

Data set [2] has as its system Mus musculus. The data set is described as follows: Decrease in serum Hb1Ac level in C57BLKS/J-Lepr/Lepr db/db mouse at 3 to 10 mg/kg, po qd for 18 days administered via gavage by ELISA. Type of data set: functional, organism-based. On the technique in general: ELISA stands for enzyme-linked immunosorbent assay.
The subject of data set [3] is Mus musculus. As to the kind of experiment: Decrease in fasting blood glucose level in C57BLKS/J-Lepr/Lepr db/db mouse at 3 to 10 mg/kg, po qd for 18 days administered via gavage by ELISA. Type of data set: functional, organism-based.
Data set [4] is described as follows: Metabolic stability in mouse liver microsomes at 1 uM after 30 mins measured under phase 2 reaction by LC/MS/MS analysis. As to conditions: 0.5 h. Type of data set: ADME. In general terms: Microsomes from liver hold many membrane-bound enzymes, among them those of drug oxidation.
For data set [5], the target named is T2, Peroxisome proliferator-activated receptor delta (Homo sapiens, UniProt Q03181).
T2 sequence (Q03181 whole entry): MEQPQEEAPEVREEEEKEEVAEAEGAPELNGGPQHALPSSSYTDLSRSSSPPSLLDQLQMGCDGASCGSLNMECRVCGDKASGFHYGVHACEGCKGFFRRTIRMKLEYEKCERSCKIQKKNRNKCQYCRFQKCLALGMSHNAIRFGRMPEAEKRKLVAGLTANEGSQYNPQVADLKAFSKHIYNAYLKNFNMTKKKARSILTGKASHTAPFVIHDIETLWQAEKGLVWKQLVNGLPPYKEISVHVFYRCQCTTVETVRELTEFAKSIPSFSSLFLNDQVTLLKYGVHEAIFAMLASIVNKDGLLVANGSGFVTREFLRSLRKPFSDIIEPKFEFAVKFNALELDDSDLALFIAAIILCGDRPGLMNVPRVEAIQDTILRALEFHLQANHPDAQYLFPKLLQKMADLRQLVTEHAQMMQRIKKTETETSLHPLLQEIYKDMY
As to the kind of experiment: Agonist activity at PPAR-delta (unknown origin) expressed in HEK293t cells co-transfected with tk-PPRE-luciferase vector after 24 hrs by transactivation assay. Type of data set: cell-based, HEK-293T.

For data set [6], the system named is Mus musculus. As to the kind of experiment: Decrease in size of adipocytes in C57BLKS/J-Lepr/Lepr db/db mouse white adipose tissue at 10 mg/kg, po administered via gavage by hematoxylin-eosin staining relative to untreated control. It is filed as functional.
Data set [7] deals with Mus musculus. As to the kind of experiment: Decrease in serum insulin level in C57BLKS/J-Lepr/Lepr db/db mouse at 3 to 10 mg/kg, po qd for 18 days administered via gavage by ELISA. Type of data set: functional, organism-based.
In data set [8] the test system is Liver microsome. The data set is described as follows: Metabolic stability in human liver microsomes at 1 uM after 30 mins measured under phase 1 reaction by LC/MS/MS analysis. As to conditions: 0.5 h. Type of data set: ADME.
The test system of data set [9] is Liver microsome. The data set is described as follows: Metabolic stability in human liver microsomes at 1 uM after 30 mins measured under phase 2 reaction by LC/MS/MS analysis. It is filed as ADME. As to conditions: 0.5 h.
In data set [10] the target is T3, Peroxisome proliferator-activated receptor delta (Homo sapiens) (UniProt Q03181).
T3 sequence (whole entry): T2 sequence (Q03181 whole entry)
The data set is described as follows: Agonist activity at PPAR-delta (unknown origin) expressed in HEK293t cells co-transfected with tk-PPRE-luciferase vector at 10 uM after 24 hrs by transactivation assay relative to GW0742. Type of data set: cell-based. The following applies: HEK-293T.

Data set [11] is described as follows: Metabolic stability in mouse liver microsomes at 1 uM after 30 mins measured under phase 1 reaction by LC/MS/MS analysis. As to conditions: 0.5 h. It is filed as ADME.
The subject of data set [12] is Mus musculus. The data set is described as follows: Effect on body weight in C57BLKS/J-Lepr/Lepr db/db mouse at 3 to 10 mg/kg, po qd for 18 days administered via gavage. Type of data set: ADME, organism-based. As to conditions: in vivo, 432 h.
The target of data set [13] is T4, Peroxisome proliferator-activated receptor alpha (Homo sapiens) (UniProt Q07869).
T4 sequence (whole entry): T1 sequence (Q07869 whole entry)
As to the kind of experiment: Agonist activity at PPAR-alpha (unknown origin) expressed in CV-1 cells co-transfected with tk-PPRE-luciferase vector at 10 uM after 24 hrs by transactivation assay relative to GW7647. It is filed as cell-based.

The target of data set [14] is T5, Peroxisome proliferator-activated receptor gamma (Homo sapiens, UniProt P37231).
T5 sequence (P37231 whole entry): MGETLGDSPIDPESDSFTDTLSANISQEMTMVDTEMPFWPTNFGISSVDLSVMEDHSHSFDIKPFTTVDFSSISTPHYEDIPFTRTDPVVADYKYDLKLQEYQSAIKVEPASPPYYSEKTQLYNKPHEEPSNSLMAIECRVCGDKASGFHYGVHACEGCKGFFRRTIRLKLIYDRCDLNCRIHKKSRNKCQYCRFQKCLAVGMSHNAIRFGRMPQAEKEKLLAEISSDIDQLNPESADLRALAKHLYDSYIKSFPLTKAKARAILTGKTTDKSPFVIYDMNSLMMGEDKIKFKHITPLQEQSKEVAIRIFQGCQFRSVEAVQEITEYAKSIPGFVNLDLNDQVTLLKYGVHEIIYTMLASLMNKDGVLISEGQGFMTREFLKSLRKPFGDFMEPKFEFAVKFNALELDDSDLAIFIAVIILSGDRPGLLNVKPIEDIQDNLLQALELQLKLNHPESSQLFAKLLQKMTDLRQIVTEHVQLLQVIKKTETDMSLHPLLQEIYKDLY
As to the kind of experiment: Agonist activity at PPAR-gamma (unknown origin) expressed in CV-1 cells co-transfected with tk-PPRE-luciferase vector after 24 hrs by transactivation assay. It is filed as cell-based.

In data set [15] the test system is Mus musculus. The data set is described as follows: Decrease in triglyceride content in C57BLKS/J-Lepr/Lepr db/db mouse liver at 3 mg/kg, po administered via gavage by hematoxylin-eosin staining. Type of data set: functional.
Data set [16] concerns the target T6, Peroxisome proliferator-activated receptor gamma (Homo sapiens) (UniProt P37231).
T6 sequence (whole entry): T5 sequence (P37231 whole entry)
As to the kind of experiment: Agonist activity at PPAR-gamma (unknown origin) expressed in CV-1 cells co-transfected with tk-PPRE-luciferase vector at 10 uM after 24 hrs by transactivation assay relative to rosiglitazone. Type of data set: cell-based.

The nature of data set [17]: Retention time of the compound by HPLC analysis. It is filed as physicochemical.
Data set [18] relates to Mus musculus. As to the kind of experiment: Decrease in size of adipocytes in C57BLKS/J-Lepr/Lepr db/db mouse white adipose tissue at 10 mg/kg, po administered via gavage by hematoxylin-eosin staining relative to rosiglitazone-treated control. Type of data set: functional.
Data set [19] deals with Mus musculus. As to the kind of experiment: Decrease in serum Hb1Ac level in C57BLKS/J-Lepr/Lepr db/db mouse at 10 mg/kg, po qd for 18 days administered via gavage by ELISA. It is filed as functional, organism-based.
In data set [20] the test system is Mus musculus. The data set is described as follows: Increase in triglyceride content in C57BLKS/J-Lepr/Lepr db/db mouse liver at 10 mg/kg, po administered via gavage by hematoxylin-eosin staining. Type of data set: functional.
Data set [21] relates to Mus musculus. The data set is described as follows: Increase in body weight in C57BLKS/J-Lepr/Lepr db/db mouse at 10 mg/kg, po qd for 18 days administered via gavage measured on day 16 relative to untreated control. Type of data set: ADME, organism-based. As to conditions: in vivo, 432 h.
For data set [22], the system named is Mus musculus. As to the kind of experiment: Decrease in serum insulin level in C57BLKS/J-Lepr/Lepr db/db mouse at 10 mg/kg, po qd for 18 days administered via gavage by ELISA. It is filed as functional, organism-based.
Data set [23] deals with Mus musculus. As to the kind of experiment: Decrease in fasting blood glucose level in C57BLKS/J-Lepr/Lepr db/db mouse at 10 mg/kg, po qd for 18 days administered via gavage by ELISA. It is filed as functional, organism-based.

The term EC50 denotes the concentration giving half of the maximal effect. A higher EC50 goes with a less potent agent. The inhibition in vivo is the relative decrease from the control value, in per cent. Low values mean a weak effect, high ones a strong effect. In the case of `O=C(O)Cc1cn(Cc2ccccc2)c2ccc(OCCCOc3cccc(OCc4ccc(Cl)cc4)c3)cc12`, the EC50 turned out to be 8.6 µM in [1], 2.2 µM in [5] and 500 nM in data set [14]. For the same molecule, the inhibition entry with Mus musculus [2], in the data set with Mus musculus [3] and in the data set on Mus musculus [7] was “Active” in each case. In addition, the Stability entry (in data set [4]; with Liver microsome [8]; with Liver microsome [9]; in data set [11]) was “Stable” in each case. Besides, the inhibition in vivo at 10 mg/kg was 18% in the data set on Mus musculus [6] and 36% with Mus musculus [18]. Moreover, the values for the Emax in data set [10], in [13] and in [16] were 82%, 31.2% and 100%, respectively. Besides, the Activity entry with Mus musculus [12] is listed as “Non-toxic”. Further, in the data set with Mus musculus [15], the inhibition in vivo at 3 mg/kg was 24%. The Retention_time in data set [17] was found to be 24.111 min.
With `Cc1ccc(COc2cccc(OCCCOc3ccc4[nH]cc(CC(=O)O)c4c3)c2)cc1`, the EC50 was 13.8 µM in data set [1], 7.2 µM in [5] and 1700 nM in [14]. In addition, the Stability result (in the data set on Liver microsome [8]; in data set [11]) was “Stable” in each case. The Emax in [10] came to 84.1%; in [13], 69.3%; in data set [16], 134%. In addition, the Retention_time in data set [17] was 8.984 min.
Regarding `CN(CCOc1ccc(CC2SC(=O)NC2=O)cc1)c1ccccn1` (configuration not stated) [ROSIGLITAZONE], the inhibition result with Mus musculus [19], in the data set on Mus musculus [22] and in the data set on Mus musculus [23] was “Active” each time. In the data set on Mus musculus [20], this molecule showed an Activity of 22%. In addition, in the data set on Mus musculus [21], the increase turned out to be 10%.
In the case of `O=C(O)Cc1cn(Cc2ccc(F)cc2)c2ccc(OCCCOc3cccc(OCc4ccc(Cl)cc4)c3)cc12`, a half-maximal response in data set [5] (EC50) required 0.75 µM. Besides, the Emax in [10] is 133%; in data set [13] it was 34.3%; in data set [16] it was 92.7%. Also, in [17], the Retention_time came out at 23.205 min.
For `Cc1ccc(COc2cccc(OCCCOc3ccc4c(CC(=O)O)cn(Cc5ccccc5)c4c3)c2)cc1`, the results for the EC50 in data set [1], in [5] and in data set [14] were 19.2 µM, 9.4 µM and 1300 nM, respectively. Moreover, the Stability result (in data set [4]; with Liver microsome [8]; with Liver microsome [9]; in data set [11]) was “Stable” in each case. The Emax stood at 90.2% in [10], 26.5% in data set [13] and 130% in data set [16]. In data set [17], this molecule displayed a Retention_time of 18.125 min.
In the case of `COc1ccc(COc2cccc(OCCOc3ccc4c(c3)c(CC(=O)O)cn4Cc3ccccc3)c2)cc1`, the EC50 worked out at 5.9 µM in data set [1], 6.3 µM in data set [5] and 1900 nM in data set [14]. Moreover, the Stability result in the data set on Liver microsome [8] was “Unstable”; in data set [11], “Stable”. The Emax is 122% in data set [10], 25.8% in data set [13] and 90.9% in data set [16]. The same molecule had a Retention_time in data set [17] of 10.127 min.
